The results in this text go back to patent US20050033056A1, “Hydroxylated indole derivatives and uses thereof” (priority 2001, published 2005).

For the series, the target named is CYP3A4 (Homo sapiens, UniProt P08684). Kind of series: CYP inhibition in HLM: R-warfarin 10-hydroxylation. The class given is in vitro ADME. Further details: tissue Gentest Corp. (Woburn, Mass.); host or cells: pooled human liver microsomes. To be noted: 10 or 50 μM. The procedure: The incubations were carried out in test tubes (12.0×75 mm). The incubation mixtures (250 μL) contained 0.5 mg of HLM protein, 50 (CYP1A2 and CYP2E1) or 25 (CYP2C9, CYP2C19, CYP2D6 and CYP3A4) pmol of recombinant human CYPs, Compound 1 (10 or 50 μM), probe substrate (R—, S-warfarin, chlorzoxazone, S-mephenyloin, or bufuralol) at different concentrations, and 0.5 mg of NADPH in 50 mM Tris buffer containing 15 mM MgCl2 (pH 7.4). Compound 1 was added to the reaction mixture 5 minutes prior to the addition of the probe substrate. […]
The quantification was based on the calibration curves, and the quality control (QC) samples were applied to ensure the quality of the experiments. […]
1. CYP1A2/2C9/3A4-mediated warfarin 6-, 7-, 8-, and 10-hydroxylation (Zhang et al., Drug Metab. Dispos. 23:1339-1346, 1995; Rettie et al., Chem. Res. Toxicol. 5:54-59, 1992; Brian et al., Biochemistry 29:11280-11292, 1990): Hewlett Packard 1100 HPLC system (Waldbronn, Germany) comprised a binary pump, an autosampler, a column compartment unit, a photodiode array detector (PDA), and a fluorescence detector. […] The warfarin metabolites, 6-, 8-, and 10-hydroxywarfarin, were monitored by UV at 313 nm, and 7-hydroxywarfarin by fluorescence at Ex320 nm/Em380 nm. […]

CYP3A4, sequence (P08684 whole entry): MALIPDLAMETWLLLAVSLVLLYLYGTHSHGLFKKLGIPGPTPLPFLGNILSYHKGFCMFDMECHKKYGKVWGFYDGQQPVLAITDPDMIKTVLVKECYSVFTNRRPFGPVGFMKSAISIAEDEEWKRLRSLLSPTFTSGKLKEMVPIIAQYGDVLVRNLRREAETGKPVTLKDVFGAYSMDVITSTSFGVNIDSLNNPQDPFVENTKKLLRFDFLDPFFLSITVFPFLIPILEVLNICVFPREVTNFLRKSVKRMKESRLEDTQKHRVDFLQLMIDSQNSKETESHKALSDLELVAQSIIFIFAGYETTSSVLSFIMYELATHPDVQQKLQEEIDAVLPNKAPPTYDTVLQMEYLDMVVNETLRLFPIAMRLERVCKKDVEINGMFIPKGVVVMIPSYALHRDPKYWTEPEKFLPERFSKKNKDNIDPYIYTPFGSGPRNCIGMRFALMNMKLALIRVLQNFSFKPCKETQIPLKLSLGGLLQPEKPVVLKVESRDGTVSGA

For the compound `CNC(=O)Cc1ccc2ccn(C3CCN(CCc4ccccc4F)CC3)c2c1` [Compound 1, N-methyl-[1-[1-(2-fluorophenethyl)piperidine-4-yl]-1H-indol-6-yl] acetamide], the “inhibitory effect on CYP3A4 activity (in words)” value is recorded as “no inhibitory effect”.
